{"source": "patent US20010010827A1", "about": "“Method and composition for treatment of headache using magnesium” (priority 1991, published 2001)", "key": {"[1]": {"tested_on": "headache (migraine, cluster, chronic migrainous, chronic tension-type)", "excerpt": "Forty consecutive patients who presented to the headache clinic with a moderate or severe headache of any type (4 or higher on a verbal 1 to 10 scale) were enrolled in this study after an informed consent. […] Patients with renal, cardiac, diabetic or other medical problems were excluded. The international Headache Society classification was used to diagnose all patients.^23 Age-matched healthy volunteers served as control subjects.\nImmediately prior to the magnesium infusion a blood sample of serum IMg^2+, total magnesium (TMg) and ionized calcium (ICa^2+) was drawn under anaerobic conditions. The laboratory personnel (B.T.A., B.M.A.) were blinded as the blood samples were not accompanied by any clinical information, while the clinician administering the infusion (A.M.) received test results several days after the completion of the evaluation. Serum levels of IMg^2+ and ICa^2+ were measured using ion-selective electrodes with a NOVA Biomedical Stat Profile 8 Analyzer.^16-18 The lower limit of normal for IMg^2+ levels in this study was 0.55/mmol/L. The normal range for the ICa^2+/IMg^2+ ratio is 1.92-2.08.\nHeadache intensity was measured on a verbal 1 to 10 scale prior to and 15 minutes after the infusion. A greater than 50% reduction of pain intensity was considered a positive response. The recurrence or worsening of a headache within the following 24 was determined in a telephone interview on the following day. The clinical response to the IMg^2+ levels was correlated. The correlation was considered to be positive if patients with a normal IMg^2+ level (≧0.55 mmol/L) had no relief or less than 24 hrs of relief. In patients with low IMg^2+ levels (<0.55 mmol/L), a correlation was considered positive only if relief lasted for more than 24 hrs.\nMean values±S.E.M. were calculated and compared for statistical significance by a Student's t-test, ANOVA with Scheffe's contrast test, analysis of co-variance for age, and linear regression analysis, where appropriate. Chi-Square tests were also utilized where appropriate. A p-value of less than 0.05 was considered significant."}, "[2]": {"tested_on": "chronic migrainous headache", "assay": "Therapies tried in patient #27 for two months before the MgSO4 infusion", "type": "in vivo, human", "settings": "acetaminophen 1000 mg or ibuprofen 400 mg four times/day, nabumetone 1000 mg/day for two weeks, cyproheptadine 4 mg nightly for two weeks", "method": "Long-term results in patients with intermittent migraine attacks is difficult to gauge because of the variable frequency of migraines in these patients. Responses in patients with chronic headaches also varied. […] Various therapists (i.e., acetaminophen—1000 mg or ibuprofen—400 mg-four times/day; nabumetone— 1000 mg/day for two weeks; cyproheptadine—4 mg nightly for two weeks; physical exercise) were tried in this patient for two months prior to the infusion with no relief."}, "[3]": {"assay": "Oral glucose loading: ionized, total and intracellular free magnesium", "type": "in vivo, human", "settings": "oral glucose 100 gm", "method": "Ionized magnesium, serum total magnesium, and plasma renin activity (PRA) in fasting normotensive (NT) (n=20), essential hypertensive (n=28) subjects was monitored before, and 60, 90, 120 and 180 minutes after oral glucose loading (100 gm). Results were compared to intracellular free magnesium values obtained at the same time intervals as measured using ^31P-NMR spectroscopy."}, "[4]": {"settings": "of the 40 patients given IV MgSO4"}}, "note": "Where two headings read alike, the source gives them in different places.", "data": [{"smiles": "O=S(=O)([O-])[O-].[Mg+2]", "note": "[MgSO4, magnesium sulfate]", "values": [{"measurement": "other side effects", "setting": "[1]; 40 patients, IV infusion", "value": "No other side effects were noted"}, {"measurement": "side effect during the IV infusion", "setting": "[1]; almost all patients", "value": "flushed feeling"}, {"measurement": "duration of relief", "setting": "[1]; cluster headache, repeat infusions of 1 to 3 gram each", "value": "approximately 48 hours"}, {"measurement": "Return Within 24 hr", "setting": "[1]; individual chronic tension headache patients, recurrence or worsening of headache within 24 hr", "value": "N"}, {"measurement": "Response", "setting": "[1]; individual cluster headache patients, 1 g MgSO4 IV over 5 min, positive = greater than 50% reduction of pain intensity 15 min after infusion", "value": "Y"}, {"measurement": "onset of improvement of headache", "setting": "[1]; most patients", "value": "began to improve before the end of infusion"}, {"measurement": "duration of relief", "setting": "[1]; most patients whose headache returned within 24 hours", "value": "1 to 2", "unit": "h"}, {"measurement": "number of patients with persistent relief of headache beyond 24 hours", "setting": "[1]; of the 32 initial responders", "value": 18, "unit": "patients"}, {"measurement": "number of patients with at least a 50% initial reduction of pain intensity", "setting": "[1]; [4]", "value": 32, "unit": "patients"}, {"measurement": "patients with at least a 50% initial reduction of pain intensity", "setting": "[1]; [4]", "value": 80, "unit": "%"}, {"measurement": "duration of relief", "setting": "[1]; patient #17, chronic cluster headache, after the initial and each of three subsequent infusions", "value": 28, "unit": "h"}, {"measurement": "persistence of response", "setting": "[1]; patient #27 (youngest patient), single infusion", "value": "positive response to Mg that persists five months later"}, {"measurement": "duration of relief", "setting": "[1]; patient #28, chronic migrainous headache", "value": 24, "unit": "h"}, {"measurement": "outcome of cluster episode", "setting": "[1]; patients #18 and #19, episodic clusters, single infusion", "value": "aborted the entire cluster episode"}, {"measurement": "time to return of headaches", "setting": "[1]; patients #24 and #25, episodic clusters", "value": "≤ 24", "unit": "h"}, {"measurement": "duration of relief", "setting": "[1]; the other four cluster headache patients", "value": "two-seven"}, {"measurement": "patients with complete elimination of pain", "setting": "[1]; within 5 min of infusion", "value": 80, "unit": "%"}]}, {"smiles": "CC(=O)Nc1ccc(O)cc1", "note": "[acetaminophen]", "values": [{"measurement": "relief of headache", "setting": "[2]", "value": "no relief"}]}, {"smiles": "O=C[C@H](O)[C@@H](O)[C@H](O)[C@H](O)CO", "note": "[glucose]", "values": [{"measurement": "total magnesium values after glucose loading", "setting": "[3]", "value": "did not differ"}, {"measurement": "ionized Mg2+ levels after oral glucose loading", "setting": "[3]; elevated from 0.60±0.02, ion selective electrode, p<0.01", "value": "0.64 ± 0.02", "unit": "mM"}, {"measurement": "intracellular Mg after oral glucose loading", "setting": "[3]; lowered from 219± 12, 31P-NMR, p<0.01", "value": "193 ± 13", "unit": "µM"}]}, {"smiles": "CC(C)Cc1ccc(C(C)C(=O)O)cc1", "note": "(centres unmarked) [ibuprofen]", "values": [{"measurement": "relief of headache", "setting": "[2]", "value": "no relief"}]}, {"smiles": "COc1ccc2cc(CCC(C)=O)ccc2c1", "note": "[nabumetone]", "values": [{"measurement": "relief of headache", "setting": "[2]", "value": "no relief"}]}]}
